Positions of bridges follow the written chain, without caps; N, C: chain ends. Non-standard residues stand in square brackets, D forms with d. Residues, ends and D or L forms follow the SMILES beside them. hArg = N=C(N)NCCCC[C@H](N)C(=O)O; Mpa = O=C(O)CCS
Experiments:
[1] = test system: platelets (platelet surface P-selectin expression); test: Platelet surface P-selectin expression by flow cytometry with GPIIb-specific antibody 5B12; assay type: cell-based; conditions: 5B12 (GPIIb-specific) instead of Y2/51; sub-maximal agonist; FIG. 2
Experimental: After a subject's blood sample has been incubated with a GPIIb-IIIa antagonist as described above, it is diluted (e.g., between 1:10 and 1:15) in autologous platelet-poor plasma (PPP). Platelet activation is assayed. Briefly, an aliquot (e.g., 20 μl) of dilute whole blood (or PRP)-GPIIb-IIIa receptor antagonist mix is incubated for 15-30 minutes at an appropriate temperature (for example, between about 22° C. and 37° C.) with sub-maximal concentration of a platelet agonist (e.g., in 10 μl). Examples of sub-maximal concentrations of platelet agonist are 0.5 μM ADP, 5.0 μM thrombin receptor activating peptide (TRAP), or 1.5 μM iso-TRAP. ADP is not generally used in the assay when the subject is receiving ADP receptor antagonist therapy. To identify platelets and to detect platelet activation, detection reagents are added.
The samples are generally analyzed using flow cytometry. Platelets are identified by light scatter characteristics and labeling of platelets using platelet-specific antibodies (e.g., antibodies that recognize CD41, CD61, CD42a, or CD42b). The binding of antibodies directed against indicators of platelet activation (e.g., anti-P-selectin, CD62P) is assayed using flow cytometry. […] The mean fluorescence intensity and the percent positive (above background) measurements are recorded.
In a second set of experiments, the monoclonal antibody 5B12 (DAKO) which is GPIIb-specific was used instead of Y2/51.

[2] = test system: platelets (platelet P-selectin expression); conditions: platelet-rich plasma; 1 μg/ml eptifibatide; 0.5 μM ADP; absence of Mab IV.3; FIG. 3
Experimental: In these experiments, platelet-rich plasma was pre-incubated with FcγRII receptor blocking monoclonal antibody (Mab IV.3, 10 μg/ml). […] The mean fluorescence intensity of platelet P-selectin expression in the presence of 0.5 μM ADP was measured in the presence or absence of unconjugated Y2/51 and in the presence or absence of GPIIb-IIIa receptor antagonist, and with or without an FcγRII receptor blocking monoclonal antibody (Mab IV.3).

[3] = test system: platelets (leukocyte-platelet aggregates) in citrate anticoagulated whole blood; test: Neutrophil-platelet (leukocyte-platelet) aggregates by flow cytometry in whole blood with Y2/51; assay type: cell-based; conditions: abciximab 6.5 μg/ml, tirofiban 50 ng/ml, FITC conjugated Y2/51, FIG. 1
From the text: In some embodiments, platelet activation is detected by assaying leukocyte-platelet aggregation. In such protocols, peripheral blood is drawn from a subject into a suitable anticoagulant, for example 3.2% sodium citrate anticoagulant or PPACK. […] ADP is not generally used in the assay when the subject is receiving ADP receptor antagonist therapy. […] The fluorescent conjugates of the reagents are labeled to be distinguishable from each other (e.g., fluorescein and phycoerythrin) so that both can be detected by flow cytometry. […] Samples are generally analyzed by flow cytometry. […] Leukocyte-platelet aggregates are identified using fluorescence histograms displaying fluorescence (above background) of platelet specific markers (e.g., CD41, CD61, CD42a or CD42b) from the gated monocyte, neutrophil or lymphocyte populations. Both the mean fluorescence intensity and the percent positive (above background) measurements are recorded. The relative amount of fluorescence (or percent positive above background) in the subject's sample is compared to a reference. An increase in the amount of fluorescence (or percent positive above background) in the subject's sample compared to the reference indicates an increased amount of platelet activation in the subject's sample. […]

[4] = cited from earlier work
[5] = within the patient population that develops an HACA response

Row | Molecule | augmentation of agonist-induced platelet surface P-selectin expression in the presence of the GPIIb-IIIa antagonist with 5B12 [1] | augmentation by Y2/51 of ADP-mediated platelet activation (P-selectin) in the presence of the antagonist [2] | augmentation by Y2/51 of agonist-induced leukocyte-platelet aggregation (neutrophil-platelet aggregates) in the presence of the GPIIb-IIIa antagonist [3] | incidence of thrombocytopenia (platelet count of <100×10^9/L) ([4]; patients receiving the drug for a second time (re-administration)) [%] | incidence of profound thrombocytopenia (platelet count of <20×10^9/L) [4, 5] | incidence of thrombocytopenia (count of <100×10^9/L) [4, 5] [%]
1 | N=C(N)NCCCC[C@@H]1NC(=O)CCSSC[C@@H](C(N)=O)NC(=O)[C@@H]2CCCN2C(=O)[C@H](Cc2c[nH]c3ccccc23)NC(=O)[C@H](CC(=O)O)NC(=O)CNC1=O [eptifibatide] ([Mpa][hArg]GDWPC-NH2; disulfide 1-7) | not augmented | augments | – | – | – | –
2 | CCCCS(=O)(=O)N[C@@H](Cc1ccc(OCCCCC2CCNCC2)cc1)C(=O)O [tirofiban] | not augmented | – | augmented | – | – | –
3 | abciximab | observed | – | did not augment | 3.6 | less than 1% | 3.5
